Data from PubChem BioAssay AID248 (DTP/NCI, 2004).
Where “and” joins values, the source holds several entries; their conditions need not be identical. Identical values can stand only once. Inconclusive results and toxic doses are left out. Cut-off read from the data, not from the text of the source: active = T/C of 150% or more; inactive = T/C below 125%.

Tested on: L1210 leukemia ip in BDF1 mice, survival T/C
Assay: NCI In Vivo Anticancer Drug Screen. Data for tumor model L1210 Leukemia (intraperitoneal) in B6D2F1 (BDF1) mice
Conditions: endpoint: mean survival time, higher = longer survival
Outline: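 Tumor was transplanted into mice, which were then dosed with test compound or vehicle alone. Survival was recorded for each group, and the treated figure was expressed relative to the control figure.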

[1] = dose: 100.0 mg/kg/injection, schedule: Q04DX003 (ip), vehicle: saline
[2] = dose: 200.0 mg/kg/injection, schedule: Q04DX003 (ip), vehicle: saline
[3] = dose: 400.0 mg/kg/injection, schedule: Q04DX003 (ip), vehicle: saline
[4] = dose: 50.0 mg/kg/injection, schedule: Q01DX009 (ip), vehicle: saline with Tween-80
[5] = dose: 100.0 mg/kg/injection, schedule: Q01DX009 (ip), vehicle: saline with Tween-80
[6] = dose: 200.0 mg/kg/injection, schedule: Q01DX009 (ip), vehicle: saline with Tween-80
[7] = dose: 100.0 mg/kg/injection, schedule: Q04DX002 (ip), vehicle: Klucel (hydroxypropylcellulose) (HPC)
[8] = dose: 100.0 mg/kg/injection, schedule: Q01DX009 (ip), vehicle: Klucel (hydroxypropylcellulose) (HPC)
[9] = dose: 200.0 mg/kg/injection, schedule: Q01DX009 (ip), vehicle: Klucel (hydroxypropylcellulose) (HPC)
[10] = dose: 400.0 mg/kg/injection, schedule: Q01DX009 (ip), vehicle: Klucel (hydroxypropylcellulose) (HPC)
[11] = dose: 100.0 mg/kg/injection, schedule: Q04DX003 (ip), vehicle: Klucel (hydroxypropylcellulose) (HPC)
[12] = dose: 200.0 mg/kg/injection, schedule: Q04DX003 (ip), vehicle: Klucel (hydroxypropylcellulose) (HPC)
[13] = dose: 400.0 mg/kg/injection, schedule: Q04DX003 (ip), vehicle: Klucel (hydroxypropylcellulose) (HPC)
[14] = dose: 100.0 mg/kg/injection, schedule: Q01DX001 (ip), vehicle: saline with Tween-80
[15] = dose: 100.0 mg/kg/injection, schedule: Q04DX003 (ip), vehicle: saline with Tween-80
[16] = dose: 200.0 mg/kg/injection, schedule: Q04DX003 (ip), vehicle: saline with Tween-80

Measured: T/C

CC(CN)NCc1ccccc1 (stereo unspecified)
inactive: dose: 100.0 mg/kg/injection, schedule: Q01DX009 (ip), vehicle: saline 96 % of control | [1] 103 % of control | dose: 200.0 mg/kg/injection, schedule: Q01DX009 (ip), vehicle: saline 94 % of control | [2] 103 % of control | [3] 95 % of control

O=C(N/N=C/c1cccc(F)c1)c1ccc(Cl)cc1
inactive: [4] 94 % of control | [5] 91 % of control | [6] 94 % of control

CCCCCCCNC(CC(C)C)C(=O)OCC (stereo unspecified)
inactive: dose: 25.0 mg/kg/injection, schedule: Q04DX002 (ip), vehicle: Klucel (hydroxypropylcellulose) (HPC) 91 % of control | dose: 50.0 mg/kg/injection, schedule: Q04DX002 (ip), vehicle: Klucel (hydroxypropylcellulose) (HPC) 97 % of control | [7] 94 % of control

CCCn1c2ccccc2c2ccccc21
inactive: [8] 96 % of control | [9] 97 % of control | [10] 94 % of control

O=C(O)CSCc1ccccc1
inactive: dose: 25.0 mg/kg/injection, schedule: Q01DX009 (ip), vehicle: saline with Tween-80 102 % of control | [4] 95 % of control | [5] 100 % of control and 102 % of control | [11] 94 % of control | [12] 100 % of control | [13] 102 % of control

CC(C)CC(N)C(=O)O (stereo unspecified)
inactive: dose: 100.0 mg/kg/injection, schedule: Q01DX001 (ip), vehicle: carboxymethylcellulose (CMC) 87 % of control | dose: 200.0 mg/kg/injection, schedule: Q01DX001 (ip), vehicle: carboxymethylcellulose (CMC) 91 % of control | dose: 400.0 mg/kg/injection, schedule: Q01DX001 (ip), vehicle: carboxymethylcellulose (CMC) 91 % of control

Cc1ccc(Oc2ccc3cc[n+](C)cc3c2)cc1
inactive: dose: 6.25 mg/kg/injection, schedule: Q04DX002 (ip), vehicle: DMSO 94 % of control | dose: 12.5 mg/kg/injection, schedule: Q04DX002 (ip), vehicle: DMSO 105 % of control | dose: 25.0 mg/kg/injection, schedule: Q04DX002 (ip), vehicle: DMSO 102 % of control

CC/C(C)=N/C(=O)NN
inactive: [14] 103 % of control

CSc1ccc(NC(=O)c2ccc(C(=O)Nc3ccc(SC)cc3)cc2)cc1
inactive: [8] 94 % of control | [9] 89 % of control | [10] 89 % of control

COc1cc(C)c(/C=N/NC(=O)c2ccncc2)cc1C
inactive: dose: 100.0 mg/kg/injection, schedule: Q04DX002 (ip), vehicle: carboxymethylcellulose (CMC) 103 % of control | dose: 200.0 mg/kg/injection, schedule: Q04DX002 (ip), vehicle: carboxymethylcellulose (CMC) 96 % of control | dose: 400.0 mg/kg/injection, schedule: Q04DX002 (ip), vehicle: carboxymethylcellulose (CMC) 92 % of control

C=CC(C)=O.C=CC(C)=O.C=CC(C)=O.[W]
inactive: dose: 100.0 mg/kg/injection, schedule: Q04DX003 (ip), vehicle: other 94 % of control | dose: 200.0 mg/kg/injection, schedule: Q04DX003 (ip), vehicle: other 92 % of control | dose: 400.0 mg/kg/injection, schedule: Q04DX003 (ip), vehicle: other 97 % of control

CC(=O)Nc1cc2ccccc2[n+](C)c1
inactive: dose: 12.5 mg/kg/injection, schedule: Q04DX003 (ip), vehicle: Klucel (hydroxypropylcellulose) (HPC) 94 % of control | dose: 25.0 mg/kg/injection, schedule: Q04DX003 (ip), vehicle: Klucel (hydroxypropylcellulose) (HPC) 98 % of control | dose: 50.0 mg/kg/injection, schedule: Q04DX003 (ip), vehicle: Klucel (hydroxypropylcellulose) (HPC) 96 % of control

CCCCNC(=S)N(CCCC)CCCC
inactive: [1] 96 % of control | [2] 103 % of control | [3] 96 % of control

CCN(Cc1ccccc1)c1cc(=O)[nH]c(=O)[nH]1
inactive: dose: 48.0 mg/kg/injection, schedule: Q01DX001 (ip), vehicle: Klucel (hydroxypropylcellulose) (HPC) 100 % of control | dose: 96.0 mg/kg/injection, schedule: Q01DX001 (ip), vehicle: Klucel (hydroxypropylcellulose) (HPC) 102 % of control | dose: 192.0 mg/kg/injection, schedule: Q01DX001 (ip), vehicle: Klucel (hydroxypropylcellulose) (HPC) 97 % of control

CCN(C(=O)Nc1ccccc1)c1ccccc1C
inactive: [5] 97 % of control | [15] 111 % of control | [6] 86 % of control | [16] 98 % of control | dose: 400.0 mg/kg/injection, schedule: Q01DX009 (ip), vehicle: saline with Tween-80 92 % of control | dose: 400.0 mg/kg/injection, schedule: Q04DX003 (ip), vehicle: saline with Tween-80 102 % of control

CCOC(=O)c1cc(C)n(-c2ccc(-c3ccc(-n4c(C)cc(C(=O)OCC)c4C)c(C)c3)cc2C)c1C
inactive: [11] 98 % of control | [12] 101 % of control | [13] 93 % of control

NC(N)=NN=C(C1CC1)C1CC1
inactive: dose: 15.0 mg/kg/injection, schedule: Q01DX Z (ip), vehicle: carboxymethylcellulose (CMC) 103 % of control | dose: 30.0 mg/kg/injection, schedule: Q01DX Z (ip), vehicle: carboxymethylcellulose (CMC) 89 % of control | dose: 60.0 mg/kg/injection, schedule: Q01DX Z (ip), vehicle: carboxymethylcellulose (CMC) 95 % of control | dose: 120.0 mg/kg/injection, schedule: Q01DX Z (ip), vehicle: carboxymethylcellulose (CMC) 92 % of control and 96 % of control | dose: 120.0 mg/kg/injection, schedule: Q01DX Z (oral), vehicle: carboxymethylcellulose (CMC) 105 % of control | dose: 240.0 mg/kg/injection, schedule: Q01DX Z (ip), vehicle: carboxymethylcellulose (CMC) 92 % of control and 104 % of control | dose: 240.0 mg/kg/injection, schedule: Q01DX Z (oral), vehicle: carboxymethylcellulose (CMC) 105 % of control | dose: 480.0 mg/kg/injection, schedule: Q01DX Z (ip), vehicle: carboxymethylcellulose (CMC) 104 % of control | dose: 480.0 mg/kg/injection, schedule: Q01DX Z (oral), vehicle: carboxymethylcellulose (CMC) 103 % of control | dose: 960.0 mg/kg/injection, schedule: Q01DX Z (oral), vehicle: carboxymethylcellulose (CMC) 100 % of control

Cc1ccccc1N=Nc1c(O)n(-c2ccccc2)c(=S)n(-c2ccccc2)c1=O
inactive: dose: 37.5 mg/kg/injection, schedule: Q01DX001 (ip), vehicle: saline with Tween-80 99 % of control | dose: 75.0 mg/kg/injection, schedule: Q01DX001 (ip), vehicle: saline with Tween-80 90 % of control | dose: 150.0 mg/kg/injection, schedule: Q01DX001 (ip), vehicle: saline with Tween-80 99 % of control

NNC(=O)c1ccccc1CO
inactive: [14] 100 % of control | dose: 200.0 mg/kg/injection, schedule: Q01DX001 (ip), vehicle: saline with Tween-80 103 % of control

O=C(Oc1ccc(S(=O)(=O)F)cc1Cl)c1ccc(Cl)cc1
inactive: [7] 92 % of control | dose: 200.0 mg/kg/injection, schedule: Q04DX002 (ip), vehicle: Klucel (hydroxypropylcellulose) (HPC) 89 % of control | dose: 400.0 mg/kg/injection, schedule: Q04DX002 (ip), vehicle: Klucel (hydroxypropylcellulose) (HPC) 89 % of control

CCCCn1nnc2c(NCCc3cnc[nH]3)nc(N)nc21
inactive: [4] 93 % of control | [5] 95 % of control | [15] 89 % of control | [16] 89 % of control
